Tests used:
[1] = test system: spontan hypertensiven Ratten (SHR); assay: Hypotensive effect in spontaneously hypertensive rats, single intragastric administration; assay type: in vivo; conditions: for Der hypotensive Effekt, % an SHR nach 48 Stunden: after 48 hours; for Dauer der hypotensiven Wirkung: single intragastric dose 10 mg/kg (similar dose for comparators), time over which the effect is detected or after which it ends
[2] = test system: spontan hypertensiven Ratten; assay: Hypotensive effect in spontaneously hypertensive rats, repeated intragastric administration for 10 days; assay type: in vivo; conditions: SHR
in vivo = conditions: mouse, ip, white outbred mice, intraperitoneal administration
[3] = Solubility and stability of the substance; assay type: physicochemical
Method: Die genannte Verbindung stellt eine kristalline Substanz vom 128 bis I30°C Schm.p. dar. […] Diese Verbindung ist sowohl in kristallinem Zustand als auch in Porm von Lösungen in organischen Lösungsmitteln stabil.

[4] = dose 10 mg/kg, single intragastric administration, after 6 hours
[5] = dose 10 mg/kg, single intragastric administration

| Structure (SMILES) | Der hypotensive Effekt, % an SHR nach I Stunden ([1]; dose 10 mg/kg, single intragastric administration, after 1 hour) [%] | Der hypotensive Effekt, % an SHR nach 6 Stunden [1, 4] [%] | Der hypotensive Effekt, % an SHR nach 24 Stunden ([1]; dose 10 mg/kg, single intragastric administration, after 24 hours) [%] | Der hypotensive Effekt, % an SHR nach 48 Stunden [1, 5] [%] | Dauer der hypotensiven Wirkung [1] [Stunden] | systolische Blutdruck herabgesetzt ([1]; single intragastric dose 10 mg/kg, after 6 hours) [%] | Effekt der Senkung des systolischen arteriellen Blutdrucks, Zeit nach der Einführung ([1]; single intragastric dose 10 mg/kg, onset of effect) [Minuten] | systolische Blutdruck herabgesetzt zum 10. Einführungstag ([2]; 10 mg/kg intragastric once daily for 10 days) [%] | arterielle Blutdruck erreichte das Ausgangsniveau nach dem Aufhören der Einführung ([2]; after stopping 10 mg/kg intragastric once daily for 10 days) [Tagen] | LD50 (in vivo) [mg/kg] | Stabilität ([3]; in crystalline state and as solutions in organic solvents) | Löslichkeit in Methyl-, Äthylalkohol, Azeton, Chloroform ([3]; organic solvents) | Löslichkeit in Wasser ([3]; water) |
| --- | --- | --- | --- | --- | --- | --- | --- | --- | --- | --- | --- | --- | --- |
| COC(=O)C1=C(C)NC(C)=C(C(=O)OC)C1c1ccccc1[N+](=O)[O-] [Nifedipine, 2,6-Dimethyl-3,5-dimethoxykarbonyl-4-(o-nithophenyl)-I,4-di-hydropyridin, reference compound] | 34 | 23 | 0 | 0 | 6 | – | – | – | – | – | – | – | – |
| CSC1=C(C#N)C(c2ccccc2OC(F)F)C=C(c2ccccc2)N1 (stereo not shown) [Die erfindungsgemässe Verbindung, 2-Methylmerkapto-3-zyano-4-(o-difluormethoxyphenyl)-6-phenyl-I,4-dihydropyridin] | – | 24 | – | 6 | ≤ 48 | 21 | 30 | 26 | ≤ 3 | > 5000 | stabil | gut löslich | praktisch unlöslich |

Source: patent EP0289604A1, “2-METHYLMERCAPTO-3-CYANO-4-(O-DIFLUOROMETHOXYPHENYL)-6-PHENYL-1,4-DIHYDROPYRIDINE” (INSTITUT ORGANICHESKOGO SINTEZA AKADEMII NAUK LATVIISKOI SSR, priority 1986, dated 1988)
